# Test results reported in article PMC8333062, “Chemical tools for epichaperome-mediated interactome dysfunctions of the central nervous system” (Nature Communications, 2021).
# Columns and labels:
# intracranial MDA-MB-468 = assay: Survival studies in mice; type: in vivo, mouse; conditions: 50 mg kg^−1 iv, three times per week, n=7
# GBM#5 = assay: Survival studies in mice; type: in vivo, mouse; conditions: 50 mg kg^−1 iv, three times per week, n=7
# Source text: (§1) Survival of the animals was followed until the mice became morbid (physical and/or neurological symptoms), at which point, the animals were killed. Typically, mice became symptomatic several weeks to a few months after GSC implantation. Log-rank tests were used to compare the distribution of time to killing across groups and Kaplan–Meier curves were produced.
# GBM#7 = assay: Survival studies in mice; type: in vivo, mouse; conditions: 50 mg kg^−1 iv, three times per week, n=7
# Source text: as §1
# GBM#8 = assay: Survival studies in mice; type: in vivo, mouse; conditions: 50 mg kg^−1 iv, three times per week, n=7
# Source text: as §1
# CYP2A6 = biological target: T1, CYP2A6 (Homo sapiens, UniProt P11509); assay: Cytochrome P450 profiling, tranylcypromine; type: in vitro ADME; conditions: for % PU-HZ151 remaining: Tranylcypromine
# T1 construct: PU-HZ151 (1 µM) was incubated with human liver microsomes (0.5 mg protein mL^−1); tissue Life Technologies HMMCPL; host or cells: human liver microsomes
# T1 sequence (P11509 1-494): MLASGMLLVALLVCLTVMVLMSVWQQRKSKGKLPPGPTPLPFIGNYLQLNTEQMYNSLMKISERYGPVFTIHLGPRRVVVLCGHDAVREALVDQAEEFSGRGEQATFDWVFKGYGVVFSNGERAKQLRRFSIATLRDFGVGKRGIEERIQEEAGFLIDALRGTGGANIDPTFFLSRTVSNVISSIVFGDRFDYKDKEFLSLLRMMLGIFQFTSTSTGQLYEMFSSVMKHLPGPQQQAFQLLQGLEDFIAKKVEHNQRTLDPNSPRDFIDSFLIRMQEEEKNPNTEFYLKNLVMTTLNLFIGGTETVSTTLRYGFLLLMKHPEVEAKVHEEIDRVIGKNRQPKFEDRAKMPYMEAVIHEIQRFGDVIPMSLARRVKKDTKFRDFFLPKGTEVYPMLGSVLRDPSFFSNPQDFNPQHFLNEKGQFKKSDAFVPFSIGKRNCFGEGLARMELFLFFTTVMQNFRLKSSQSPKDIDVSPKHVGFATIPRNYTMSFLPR
# Description: (§2) To identify cytochrome P450 enzymes responsible for PU-HZ151’s metabolism in human liver microsomes the following procedure was followed. Phosphate buffer (100 mM, pH 7.4) was prepared monthly and stored at 4 °C. Frozen stock solutions of human liver microsomes (Life Technologies; Cat# HMMCPL) were used once after thawing and were not refrozen. NADPH stock solution (50 mM) in distilled water was prepared fresh daily. […] The stock solutions of these P450 inhibitors were prepared in DMSO. […] The concentration of the chemical inhibitors used in the assay were furafylline (10 μM), tranylcypromine (2 μM), ketoconazole (1 μM), troleandomycin (20 μM), orphenadrine (50 μM), montelukast (3 μM), sulfaphenazole (10 μM), benzylnirvanol (1 μM), quinidine (1 μM), and 1-aminobenzotriazole (1 mM) for all the P450 enzymes. Timing of the reactions was started following the addition of NADPH/magnesium chloride mix and PU-HZ151. Time-dependent chemical inhibitors (furafylline, troleandomycin, orphenadrine, and 1-aminobenzotriazole) were preincubated with human microsomes in the presence of NADPH and magnesium chloride for 15 min before the addition of PU-HZ151 and timing of reactions was started after addition of PU-HZ151. […] Following brief vortexing and centrifugation, a 200 µL aliquot of the supernatant was transferred to a tube, and 10 µL of haloperidol (1 µg mL^−1) as internal standard was added. Following brief vortexing and centrifugation, 50 µL of supernatant was added to a 96-well plate for subsequent LC-MS/MS analysis. PU-HZ151 was similarly tested as above in the absence of CYP inhibitors for comparative purposes. All samples were assayed in duplicate. […] This was similarly performed for incubations of PU-HZ151 performed in the absence of CYP inhibitor.
# CYP2B6 = biological target: T2, CYP2B6 (Homo sapiens, UniProt P20813); assay: Cytochrome P450 profiling, orphenadrine; type: in vitro ADME; conditions: for % PU-HZ151 remaining: Orphenadrine
# T2 construct: tissue Life Technologies HMMCPL; host or cells: human liver microsomes
# T2 sequence (P20813 1-491): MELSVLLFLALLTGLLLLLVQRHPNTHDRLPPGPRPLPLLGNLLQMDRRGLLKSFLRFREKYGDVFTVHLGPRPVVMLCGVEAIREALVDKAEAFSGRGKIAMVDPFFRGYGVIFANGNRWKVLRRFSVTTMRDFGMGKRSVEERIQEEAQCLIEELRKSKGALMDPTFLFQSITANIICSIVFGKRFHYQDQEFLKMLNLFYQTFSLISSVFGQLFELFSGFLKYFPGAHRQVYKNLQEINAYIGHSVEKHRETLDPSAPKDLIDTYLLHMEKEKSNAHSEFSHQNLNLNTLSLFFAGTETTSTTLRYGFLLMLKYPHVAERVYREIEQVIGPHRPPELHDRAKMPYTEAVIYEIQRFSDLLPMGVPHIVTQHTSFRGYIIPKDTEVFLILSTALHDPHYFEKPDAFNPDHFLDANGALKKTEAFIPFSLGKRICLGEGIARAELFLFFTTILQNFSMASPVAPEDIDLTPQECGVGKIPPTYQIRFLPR
# Description: as §2
# CYP2D6 = biological target: T3, CYP2D6 (Homo sapiens, UniProt P10635); assay: Cytochrome P450 profiling, quinidine; type: in vitro ADME; conditions: for % PU-HZ151 remaining: Quinidine
# T3 construct: tissue Life Technologies HMMCPL; host or cells: human liver microsomes
# Description: as §2
# CYP2C19 = biological target: T4, CYP2C19 (Homo sapiens, UniProt P33261); assay: Cytochrome P450 profiling, benzylnirvanol; type: in vitro ADME; conditions: for % PU-HZ151 remaining: Benzylnirvanol
# T4 construct: PU-HZ151 (1 µM) was incubated with human liver microsomes (0.5 mg protein mL^−1); tissue Life Technologies HMMCPL; host or cells: human liver microsomes
# Description: as §2
# normal neurons = type: cell-based; conditions: constant exposure of 72 hours
# MDA-MB-468 cells = assay: Cell viability, ATP levels 72 h; type: cell-based, human; conditions: control MDA-MB-468 of Fig. 6f; mean
# T4 sequence (P33261 whole entry): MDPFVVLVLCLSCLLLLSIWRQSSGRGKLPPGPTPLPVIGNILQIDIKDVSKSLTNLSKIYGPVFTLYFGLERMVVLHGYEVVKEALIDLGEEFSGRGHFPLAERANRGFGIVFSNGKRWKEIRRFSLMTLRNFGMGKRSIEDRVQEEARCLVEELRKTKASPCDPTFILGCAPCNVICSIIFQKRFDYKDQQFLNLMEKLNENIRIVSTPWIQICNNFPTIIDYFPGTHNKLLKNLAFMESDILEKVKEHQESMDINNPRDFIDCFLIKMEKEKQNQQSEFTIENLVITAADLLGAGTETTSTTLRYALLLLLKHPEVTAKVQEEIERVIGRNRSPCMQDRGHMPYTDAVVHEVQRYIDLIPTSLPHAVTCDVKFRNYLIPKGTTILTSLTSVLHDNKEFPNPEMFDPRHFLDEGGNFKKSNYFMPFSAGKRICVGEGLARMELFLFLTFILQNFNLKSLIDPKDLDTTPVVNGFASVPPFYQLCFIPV
# T3 sequence (P10635 whole entry): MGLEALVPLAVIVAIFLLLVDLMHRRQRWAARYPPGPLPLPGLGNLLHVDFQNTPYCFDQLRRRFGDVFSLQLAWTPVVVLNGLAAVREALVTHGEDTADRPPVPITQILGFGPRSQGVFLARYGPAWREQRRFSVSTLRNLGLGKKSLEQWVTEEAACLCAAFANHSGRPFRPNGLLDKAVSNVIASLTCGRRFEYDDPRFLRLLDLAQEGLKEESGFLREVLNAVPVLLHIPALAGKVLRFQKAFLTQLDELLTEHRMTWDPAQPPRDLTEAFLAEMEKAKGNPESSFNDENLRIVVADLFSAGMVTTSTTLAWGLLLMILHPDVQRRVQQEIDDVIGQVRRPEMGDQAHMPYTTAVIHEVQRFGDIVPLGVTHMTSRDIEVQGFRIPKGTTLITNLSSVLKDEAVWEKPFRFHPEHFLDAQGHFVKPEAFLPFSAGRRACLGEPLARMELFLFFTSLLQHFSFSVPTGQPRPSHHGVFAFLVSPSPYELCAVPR
smiles,measurement,setting,value
CC(C)(C)CNCCn1c(Sc2cc3c(cc2I)OCO3)nc2c(N)ncnc21 [Compound 85],"survival vs vehicle, log-rank P",intracranial MDA-MB-468,0.0001
same,"survival vs vehicle, log-rank P",GBM#5,0.86
same,"survival vs vehicle, log-rank P",GBM#7,0.0061
same,"survival vs vehicle, log-rank P",GBM#8,0.21
same,% PU-HZ151 remaining,CYP2A6; 15 min,57.2%
same,% PU-HZ151 remaining,CYP2A6; 30 min,36.6%
same,% PU-HZ151 remaining,CYP2A6; 60 min,18.4%
same,inhibition of PU-HZ151 metabolism,CYP2A6; tranylcypromine,essentially no effect
same,% PU-HZ151 remaining,CYP2B6; 15 min,62%
same,% PU-HZ151 remaining,CYP2B6; 30 min,42.7%
same,% PU-HZ151 remaining,CYP2B6; 60 min,25.6%
same,inhibition of PU-HZ151 metabolism,CYP2B6; orphenadrine,10%
same,% PU-HZ151 remaining,CYP2D6; 15 min,62.9%
same,% PU-HZ151 remaining,CYP2D6; 30 min,43.9%
same,% PU-HZ151 remaining,CYP2D6; 60 min,26.6%
same,inhibition of PU-HZ151 metabolism,CYP2D6; quinidine,11%
same,% PU-HZ151 remaining,CYP2C19; 15 min,59.2%
same,% PU-HZ151 remaining,CYP2C19; 30 min,39.3%
same,% PU-HZ151 remaining,CYP2C19; 60 min,20.2%
same,inhibition of PU-HZ151 metabolism,CYP2C19; benzylnirvanol,4%
same,concentration needed to induce toxicity,normal neurons,100 µM
same,%Survival of cells at day 0 (ATP levels),MDA-MB-468 cells,-90%
